Test systems include COLO 205 colon; DU-145 prostate; HL-60(TB) leukemia; HT29 colon; IGROV1 ovarian; KM12 colon; NCI/ADR-RES ovarian; SF-268 CNS; SW-620 colon; SK-MEL-28 melanoma.
Holding throughout (assay): NCI tumour cell line growth inhibition, 48 h

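Grown in 96-well plates, cells were treated for 48 hours with each compound at five concentrations. Insufficient inhibition: endpoint recorded as highest concentration tested. The concentration for full growth arrest is given as TGI.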 Some results are limits rather than exact numbers.

Turning to `CCCCCCCCCCCCCCCCOC[C@H](COC(c1ccccc1)(c1ccccc1)c1ccccc1)O[P+](=S)OC` (stereo partly drawn), the TGI in the test with COLO 205 colon, in the test with DU-145 prostate, in the test with HL-60(TB) leukemia, in the test with HT29 colon, in the test on IGROV1 ovarian and in the test with KM12 colon was over 100 µM each time. The TGI in the test with NCI/ADR-RES ovarian, with SF-268 CNS and in the test on SW-620 colon was over 100 µM each time.
With `COc1cc(-c2cc(OC)c(OC)c3ccc(Br)cc23)c2cc(Br)ccc2c1OC`, the TGI with COLO 205 colon is over 100 µM; with DU-145 prostate, 93.4 µM; in the test on HT29 colon, over 100 µM; in the test with IGROV1 ovarian it was 85.3 µM; in the test with NCI/ADR-RES ovarian, 90.1 µM; with SF-268 CNS, 50.8 µM. In addition, the TGI was 45.7 µM in the test on SK-MEL-28 melanoma and over 100 µM with SW-620 colon.
`CC(C)C(Nc1c2ccccc2[n+](C)c2ccccc12)C(=O)O` (stereo not drawn): the TGI with COLO 205 colon, in the test with HL-60(TB) leukemia, with HT29 colon, in the test with IGROV1 ovarian, with KM12 colon and in the test with SF-268 CNS was over 100 µM throughout. In the test on SW-620 colon, this compound displayed a TGI of over 100 µM.
In the case of `CCOC(=O)/C(=C/c1cn(C(C)=O)c2ccccc12)P(=O)(OC)OC`, the TGI with DU-145 prostate is over 100 µM; in the test with HL-60(TB) leukemia, 48.4 µM; in the test with HT29 colon, over 100 µM; in the test with IGROV1 ovarian, over 100 µM; in the test on NCI/ADR-RES ovarian it was over 100 µM; in the test with SK-MEL-28 melanoma, over 100 µM. In the test with SW-620 colon, this compound gave a TGI of over 100 µM.
`Cn1c(COC(=O)NC2CCCCC2)c(COC(=O)NC2CCCCC2)c2ccc3ccccc3c21`: the TGI in the test on COLO 205 colon was over 100 µM; in the test on HT29 colon, over 100 µM; with IGROV1 ovarian, over 100 µM; with KM12 colon, over 100 µM; in the test with NCI/ADR-RES ovarian, 62 µM; in the test on SF-268 CNS it was over 100 µM. The compound also returned a TGI in the test with SW-620 colon of over 100 µM.
Consider `N#Cc1nc(-c2ccsc2)oc1N`, for which the TGI with DU-145 prostate, with HL-60(TB) leukemia, in the test on HT29 colon, in the test on IGROV1 ovarian, in the test with KM12 colon and in the test on SF-268 CNS was over 100 µM in each case. For the same compound, the TGI with SK-MEL-28 melanoma and in the test on SW-620 colon was over 100 µM in each case.
On to `Cc1cc(C)c(C2=NO[C@@H]3[C@H]2C(=O)C=C2N(Cc4ccccc4)CCO[C@@]23O)c(C)c1`, for which the TGI in the test on COLO 205 colon, in the test with HL-60(TB) leukemia, with HT29 colon, with IGROV1 ovarian, with KM12 colon and in the test on NCI/ADR-RES ovarian was over 100 µM throughout. Further, the TGI with SF-268 CNS, in the test with SK-MEL-28 melanoma and in the test with SW-620 colon was over 100 µM each time.
For `Nc1c(-c2ccccc2)c2ccc([N+](=O)[O-])cc2c(=O)n1-c1cccc(C(=O)O)c1`, the TGI in the test with DU-145 prostate, with HL-60(TB) leukemia, with HT29 colon, in the test with IGROV1 ovarian, in the test on KM12 colon and with NCI/ADR-RES ovarian was over 100 µM throughout. The TGI with SF-268 CNS, in the test on SK-MEL-28 melanoma and in the test on SW-620 colon was over 100 µM each time.
For `COC(=O)c1c2c(cc3c1CC1(Cc4cc5c(cc4C1)CCCC5)C3)CCCC2`, the TGI in the test on COLO 205 colon, in the test with HL-60(TB) leukemia, in the test with HT29 colon, in the test on IGROV1 ovarian, in the test on KM12 colon and in the test on NCI/ADR-RES ovarian was over 100 µM in each case.
Consider `Nc1ncnc2c1ncn2C1C(O)C=C(CO)C1O` (stereo not drawn), for which the TGI in the test with COLO 205 colon, in the test on HL-60(TB) leukemia, with HT29 colon, in the test with IGROV1 ovarian, in the test on KM12 colon and with NCI/ADR-RES ovarian was over 625 µM each time. Besides, the TGI with SF-268 CNS and with SW-620 colon was over 625 µM each time.
Consider `Cc1cc(C)n(C(=CC(=O)C(Cl)Cl)n2nc(C)cc2C)n1`, for which the TGI in the test on COLO 205 colon is 40 µM; in the test on DU-145 prostate, 23 µM; in the test on HL-60(TB) leukemia it was 18.1 µM; with IGROV1 ovarian, 30.4 µM; in the test with KM12 colon, 24 µM; in the test with NCI/ADR-RES ovarian, 10.7 µM. The figures for the TGI in the test with SF-268 CNS and with SW-620 colon were over 100 µM and 40.6 µM, respectively.
On to `O=c1[nH]c2ccccc2c(=O)n1/N=C\c1ccccc1O`, for which the TGI in the test with COLO 205 colon, in the test with DU-145 prostate, in the test with HL-60(TB) leukemia, with HT29 colon, in the test with IGROV1 ovarian and in the test with KM12 colon was over 100 µM throughout. For the same compound, the TGI with SF-268 CNS, with SK-MEL-28 melanoma and in the test with SW-620 colon was over 100 µM in each case.
Turning to `Cc1c(-c2ccccc2)oc(=O)c2ccccc12`, the TGI is 33.7 µM in the test on COLO 205 colon; over 100 µM in the test on DU-145 prostate; 34.6 µM in the test on HT29 colon; 46.6 µM in the test on IGROV1 ovarian; 51.9 µM in the test with KM12 colon; 75.4 µM in the test on NCI/ADR-RES ovarian. For the same compound, the results for the TGI in the test with SF-268 CNS and with SK-MEL-28 melanoma were 45.1 µM and 37.3 µM, respectively.
With `CCOC(=O)CCC(C(=O)OCC)n1nnc2cc(Nc3c(C)[n+]([O-])c4cc(Cl)ccc4[n+]3[O-])ccc21` (stereo not drawn), the TGI in the test on COLO 205 colon, in the test with DU-145 prostate, in the test on HL-60(TB) leukemia, with HT29 colon, with IGROV1 ovarian and in the test on KM12 colon was over 100 µM each time. Moreover, the TGI with NCI/ADR-RES ovarian, in the test with SF-268 CNS and in the test with SW-620 colon was over 100 µM each time.
`CCOC(=O)NCC(=O)NCC(=O)NCC(N)=O`: the TGI with COLO 205 colon, in the test on DU-145 prostate, in the test on HT29 colon, with IGROV1 ovarian, with KM12 colon and in the test on NCI/ADR-RES ovarian was over 100 µM throughout. Besides, the TGI with SF-268 CNS, in the test with SK-MEL-28 melanoma and in the test on SW-620 colon was over 100 µM throughout.
In the case of `C/C(=C\C(=O)O)C(=O)N(C)c1ccccc1I`, the TGI with COLO 205 colon, in the test on DU-145 prostate, with KM12 colon, in the test with NCI/ADR-RES ovarian, with SF-268 CNS and with SK-MEL-28 melanoma was over 100 µM throughout. The TGI in the test with SW-620 colon was over 100 µM.
For the compound `COc1cc(CNc2nc3c(NC(C)=O)cc(C(F)(F)F)cc3nc2-c2ccccc2)cc(OC)c1OC`, the TGI in the test with COLO 205 colon, in the test on IGROV1 ovarian, with KM12 colon, with SF-268 CNS, in the test on SK-MEL-28 melanoma and in the test with SW-620 colon was over 100 µM throughout.
Take `N#Cc1cc2c(n(C3OC(CO)C(O)C(O)C3O)c1=S)CCC2` (stereo not drawn): the TGI in the test on COLO 205 colon, in the test on DU-145 prostate, with HL-60(TB) leukemia, with HT29 colon, in the test on IGROV1 ovarian and in the test with KM12 colon was over 100 µM each time. Also, the TGI in the test with NCI/ADR-RES ovarian, in the test on SF-268 CNS and in the test on SK-MEL-28 melanoma was over 100 µM throughout.
As to `CCn1c(-c2cc3ccccc3cc2OC(C)=O)n[nH]c1=S`, the TGI was 81.1 µM in the test with DU-145 prostate; 19.5 µM in the test on HL-60(TB) leukemia; over 100 µM in the test on HT29 colon; over 100 µM in the test on IGROV1 ovarian; over 100 µM in the test on KM12 colon; 60.9 µM in the test with NCI/ADR-RES ovarian. Besides, the TGI in the test with SF-268 CNS, with SK-MEL-28 melanoma and in the test with SW-620 colon was over 100 µM each time.
In the case of `O=C(CCCCCCCCC(=O)N1C(=O)CC(=O)N(c2ccc(Cl)cc2)C1=S)N1C(=O)CC(=O)N(c2ccc(Cl)cc2)C1=S`, the TGI with COLO 205 colon, in the test on DU-145 prostate, in the test with HT29 colon, in the test with KM12 colon, in the test with NCI/ADR-RES ovarian and with SF-268 CNS was over 100 µM in each case. Further, the TGI with SK-MEL-28 melanoma and in the test with SW-620 colon was over 100 µM throughout.
For `Cc1cc(Br)c(O)c(-c2cscn2)c1`, the TGI with COLO 205 colon was 51.8 µM; with HL-60(TB) leukemia, 12.7 µM; in the test on HT29 colon, over 100 µM; in the test on IGROV1 ovarian, 56.7 µM; with NCI/ADR-RES ovarian, 56.9 µM; with SW-620 colon it was 31.5 µM.
`COc1ccc(C=C2C(C)=NN(c3cccc(Cl)c3)C23C(Cl)C(=O)N3c2nc3ccccc3s2)cc1` (stereo not drawn): the TGI in the test with DU-145 prostate was found to be 33 µM; in the test with HL-60(TB) leukemia it was 6.62 µM; with HT29 colon, 24.4 µM; in the test on IGROV1 ovarian it was 40.1 µM; with KM12 colon it was 34.8 µM; with NCI/ADR-RES ovarian, 85.7 µM. For the same compound, the TGI in the test on SF-268 CNS stood at 78.3 µM; in the test on SK-MEL-28 melanoma, 23.9 µM; with SW-620 colon it was 20.7 µM.
`FC(F)(Sc1ncccn1)c1nc2ccccc2o1`: the TGI with COLO 205 colon, with DU-145 prostate, in the test on HT29 colon, with IGROV1 ovarian, in the test with KM12 colon and in the test on NCI/ADR-RES ovarian was over 100 µM each time. Also, the TGI with SF-268 CNS, in the test on SK-MEL-28 melanoma and in the test with SW-620 colon was over 100 µM throughout.
Regarding `N#CC(c1cc(Cl)ncn1)c1nc2cc(C(F)(F)F)ccc2s1` (stereo not drawn), the TGI was 10.8 µM with COLO 205 colon; over 100 µM with DU-145 prostate; 12.3 µM in the test with HT29 colon; 20.3 µM in the test with IGROV1 ovarian; 18.7 µM in the test with KM12 colon; 9.5 µM in the test on NCI/ADR-RES ovarian. Moreover, the TGI amounted to 19.4 µM in the test on SF-268 CNS, 37.4 µM with SK-MEL-28 melanoma and 17.8 µM in the test on SW-620 colon.

The values are drawn from PubChem BioAssay (NCI).
